Activity calls are given as the source filed them. How the calls were made is not given here.
Assay: non-covalent RecA intein splicing inhibitors, dose response, biochemical, cell-free, fluorescence, secondary screen (AID 449750)

| SMILES | AC50 |
| --- | --- |
| O=C(CCN1C(=O)/C(=C/c2cccs2)SC1=S)Nc1ccc(C(=O)O)c(O)c1 | 19 µM |
| CCN(CC)S(=O)(=O)c1cc(NC(=O)Cn2ncc(Cl)c(Cl)c2=O)ccc1C | 38.7 µM |
| Cc1ccc(C(C[N+](=O)[O-])c2c(C)[nH]n(-c3ccccc3)c2=O)cc1 (configuration not stated) | 5.5 µM |
| COc1ccc(OC)c(N2C(=O)C(Cl)=C(N3CCOCC3)C2=O)c1 | > 38 µM (inactive) |
| Cc1cccc(N(Cc2ccccc2)C(=O)CCl)c1 | 2.06 µM |
| CC(=O)Oc1c(/C=C(\C#N)C(N)=O)[nH]c2ccccc12 | > 38 µM (inactive) |
| CCNc1ccccc1CP(=O)(c1ccccc1)c1ccccc1O (configuration not stated) | 22.6 µM |
| O=S(=O)(c1ccc(Cl)c(Cl)c1)c1snnc1-c1ccccc1 | 9.72 µM |
| CCc1ccc(S(=O)(=O)Nc2cc(SCC(=O)O)c(O)c3ccccc23)cc1 | 3.06 µM |
| Cc1cc(=O)n(-c2ccccc2Cl)[nH]1 | 22.3 µM |
| CCC(C)[C@H](NC(=O)NC1CCN(Cc2ccccc2)CC1)C(=O)OC (some centres not stated) | 5.82 µM |
| Cn1cnc([N+](=O)[O-])c1Sc1ccc(C(C)(C)C)cc1 | > 38 µM (inactive) |
| CC(=O)N(Cc1ccc(F)cc1)C1=C(NCc2ccccc2)C(=O)c2ccccc2C1=O | 2.18 µM |
| Cc1nc2c(=O)n(C)c(=O)nc-2n(C)n1 | 0.0855 µM |
| COc1ccc(C(c2c(C)[nH][nH]c2=O)c2c(C)[nH][nH]c2=O)cc1Br | 11.2 µM |
| CC(C)CC1C(C#N)=C(N)Oc2n[nH]c(-c3ccccc3)c21 (configuration not stated) | 23.1 µM |
| CC(C)C[C@H](N)c1nnc(S(=O)(=O)Cc2ccc(F)cc2)o1 | > 38 µM (inactive) |
| Cc1ccc(C2C(C#N)=C(N)Oc3nc(-c4ccccc4)[nH]c32)o1 (configuration not stated) | > 38 µM (inactive) |
| c1ccc(-c2ccc(C3CCCN3)cc2)cc1 (configuration not stated) | > 38 µM (inactive) |
| O=C(N/N=C/c1cc(Cl)cc([N+](=O)[O-])c1O)c1ccccc1NS(=O)(=O)c1cccs1 | 22.6 µM |
| O=C(NC1CCCC1)C(c1ccc(F)cc1)N(Cc1ccccc1Cl)C(=O)CCl (configuration not stated) | 0.802 µM |

| SMILES | AC50 |
| --- | --- |
| CCOc1cc(C(c2c(C)[nH][nH]c2=O)c2c(C)[nH][nH]c2=O)ccc1OCc1ccc([N+](=O)[O-])cc1 | 6.09 µM |
| Cc1[nH]n(-c2ccccc2)c(=O)c1C(c1ccc([N+](=O)[O-])cc1)c1c(C)[nH]n(-c2ccccc2)c1=O | 3.88 µM |
| Cc1ccc(S(=O)(=O)NCC2CCC(C(=O)NCCCN3CCOCC3)CC2)cc1 (configuration not stated) | > 38 µM (inactive) |
| CC1=C(C)CC2(SC1)C(=O)N(c1ccccc1)N=C2N (configuration not stated) | > 38 µM (inactive) |
| Cc1nn(-c2ccccc2)c2c1C(c1ccco1)C(C#N)=C(N)O2 (configuration not stated) | 14 µM |
| C/C(CC(=O)Nc1ccccn1)=N\NC(=O)c1ccc(C)cc1 | > 38 µM (inactive) |
| COc1ccccc1-c1cc(C(F)(F)F)nc(S(=O)(=O)CCCC(=O)N2CCCCC2C)n1 (configuration not stated) | > 38 µM (inactive) |
| O=C1C(Nc2ccc(O)cc2)=C/C(=N/S(=O)(=O)c2cccs2)c2ccccc21 | 0.179 µM |
| Cn1c(-c2ccccc2)c(C(=O)CCl)c2ccccc21 | 22.9 µM |
| CCC(=O)N/N=C(\C)CC(=O)Nc1cccc([N+](=O)[O-])c1 | > 38 µM (inactive) |
| N#CC(C#N)C(c1ccsc1)c1c(-c2ccccc2)[nH][nH]c1=O (configuration not stated) | 37.8 µM |
| CC(C)NC(=S)NC(c1ccccc1)(c1ccccc1)c1ccccc1 | 27.9 µM |
| Cc1cc(C)c(C(CC(=O)c2cccs2)C(C#N)C#N)c(C)c1 (configuration not stated) | 38.8 µM |
| COc1cc(Br)c(C2C(C#N)=C(N)Oc3n[nH]c(-c4cccnc4)c32)cc1OC (configuration not stated) | 34.5 µM |
| Cc1ccc(SCC2=NNC(=O)C2)cc1 | 31.5 µM |
| O=C1C2=C(c3ccccc31)[N+](=O)C1CCCCC1N2[O-] (configuration not stated) | 18.3 µM |
| Cc1ccccc1N1C(=O)C(Cl)=C(N2CCOCC2)C1=O | > 38 µM (inactive) |
| O=S(=O)(N[C@H]1C[C@@H](NS(=O)(=O)OCC(Cl)(Cl)Cl)C2CCCCC21)OCC(Cl)(Cl)Cl (some centres not stated) | 3.37 µM |
| Nc1ccc(N2CCCCC2)c2nonc12 | 15.9 µM |
| Cc1nn(-c2ccccc2)c(Cl)c1CN(C(=O)CCl)c1cccc2ccccc12 | 0.933 µM |
| O=C(N/N=C/c1ccc([N+](=O)[O-])o1)c1ccccc1NS(=O)(=O)c1cccs1 | > 38 µM (inactive) |
